Measured values: patent US20250367183A1, “SUBSTANCE FOR PROMOTING REGENERATION AND REPAIR OF ORGANS OF MAMMALS AND USE THEREOF” (INSTITUTE OF ZOOLOGY, CHINESE ACADEMY OF SCIENCES, priority 2022, published 2025)
Like-named read-outs stand apart in the source and are kept apart here.

What was measured:
[1] = system: 2 mm diameter mouse ear hole; assay: ear hole trauma mouse model, 2 mm diameter ear puncher; type: in vivo, C57BL/6 mice; conditions: for healing of 2 mm ear hole: ferroptosis/autophagy inhibitors 10-20 mg/kg, measured 21 days after damage, n≥8 (FIG. 3); for healing of the 2 mm ear hole: treated 21 days, vs Vehicle (FIG. 1B)
[2] = system: 4 mm diameter mouse ear hole; set-up: species or system mice; conditions: in vivo
[3] = system: overall protein translation; type: cell-based

## O=C(Nc1ccc(C(O)(C(F)(F)F)C(F)(F)F)cc1)c1ccc(C(F)(F)F)cc1 [SR1078]
[1]; SR1078 1 mg/kg, 21 days after trauma, n≥7 (FIG. 10A)
  healing of ear holes: significantly inhibited regeneration

## O=S(=O)(NCCN1CCNCC1)c1ccc(NC2CCCCC2)c(NCc2ccccc2)c1 [UAMC-3203]
[1]
  healing of 2 mm ear hole: Neither inhibitors of ferroptosis nor autophagy could promote the healing of the ear hole like CHX

## C[C@@H]1C[C@@H]([C@H](O)CC2CC(=O)NC(=O)C2)C(=O)[C@@H](C)C1 [CHX, 4-((R)-2-((1S,3S,5S)-3,5-dimethyl-2-oxocyclohexyl)-2-hydroxyethyl)piperidine-2,6-dione]
[1]; CHX 20 mg/kg (FIG. 1E)
  HE staining of auricle tissue: the trauma had completely healed
[1]; CHX 20 mg/kg, 15th day after trauma (FIG. 1F)
  HE staining of auricle tissue: healed the tissue after damage and formed granulation tissue
[1]; CHX 20 mg/kg, 7 days, basal cells (FIG. 1G)
  KI67 immunohistochemical staining of auricle tissue: expressed a large amount of KI67
[1]; CHX 20 mg/kg, 30 days (FIG. 1D)
  closure of 2 mm ear hole wound: completely closed
[1]; CHX 20 mg/kg, 180 days after ear hole closure (FIG. 1H)
  HE staining of auricle tissue, regenerated tissues: regeneration of tissues and tissue derivatives such as hair follicles, glands, cartilage, muscles and blood vessels
[1]; CHX 20 mg/kg
  healing of the 2 mm ear hole: significantly promote the healing of the ear hole
[1]; CHX greater than 8 mg/kg, after three weeks of treatment (FIG. 1C)
  closure of 2 mm ear hole wound: completely closed
[1]; each concentration of CHX, intraperitoneal, n≥8 (FIG. 1C)
  closure of 2 mm ear hole: promoted the closure of a 2 mm diameter of ear holes
[1]; oral gavage and intraperitoneal injection, 3 weeks (FIG. 1I)
  healing effect by administration manner: different manners of administration had the effect of promoting regeneration
[2]
  wound area of 4 mm ear hole: significantly reduced
ISG genes; fibroblasts and macrophages
  ISG gene expression: upregulate the expression of classical ISGs

## Cn1nc(C(C)(C)C)cc1NC(=O)Nc1ccc(Oc2ccncc2)cc1 [MAPK13-IN-1]
[1]; MAPK13-IN-1 20 mg/kg (FIG. 9C)
  HE staining of ear hole: the trauma was almost completely healed
[1]; MAPK13-IN-1, 21 days of treatment (FIG. 9D)
  Masson staining of ear hole: Obvious regeneration of muscle fiber bundles was observed
ISG genes; FIG. 9B, cell type not given
  ISG gene expression: promote the ISG gene expression

## O=S(=O)(Nc1ccc(C(O)(C(F)(F)F)C(F)(F)F)cc1)c1cccs1 [SR3335]
[1]; SR3335 10 mg/kg, 21 days after trauma, n≥7 (FIG. 10A)
  healing of ear holes: promoted the ear holes
[1]; SR3335 (FIG. 10D)
  HE staining of ear hole: the wound was almost completely healed
[1]; SR3335, 21 days of treatment (FIG. 10E)
  Masson staining of ear hole: regeneration structures of cartilage, hair follicles, sebaceous glands (arrows), and muscles
ISG genes; fibroblasts and macrophages
  ISG gene expression: promote the ISG gene expression

## O=C1OC(COc2ccccc2[N+](=O)[O-])CC1Cc1ccccc1 (stereo not shown) [3BDO]
[1]
  healing of 2 mm ear hole: Neither inhibitors of ferroptosis nor autophagy could promote the healing of the ear hole like CHX

## COc1ccc(C[C@H]2NC[C@H](O)[C@H]2OC(C)=O)cc1 [Ani, anisomycin]
[1]; Ani 10 mg/kg
  healing of the 2 mm ear hole: significantly promote the healing of the ear hole

## Cc1cc(Nc2cc(Cl)nc(Oc3ccc([N+](=O)[O-])cc3)n2)n[nH]1 [Autophinib]
[1]
  healing of 2 mm ear hole: Neither inhibitors of ferroptosis nor autophagy could promote the healing of the ear hole like CHX

## O=C1N[C@@H]2C(=C[C@H](O)[C@@H](O)[C@H]2O)c2cc3c(c(O)c21)OCO3 [Narciclasine]
[1]; Narciclasine 1-3 mg/kg (FIG. 5F, 5G)
  regenerated tissues in closed ear holes (histochemical, Masson): regenerate tissues and tissue derivatives such as hair follicles, glands, cartilage and muscles
[1]; Narciclasine 1-3 mg/kg, intraperitoneal (FIG. 5D, 5E)
  healing of 2 mm ear holes: significantly promote the healing of 2 mm ear holes
[3]
  inhibition of overall protein translation: significantly inhibit the overall protein translation
ISG genes; fibroblasts and macrophages
  ISG gene expression: significantly promoted the expression of ISG genes

## O=C1N[C@H]2[C@H](O)[C@H](O)[C@@H](O)[C@H](O)[C@@H]2c2cc3c(c(O)c21)OCO3 [Pancratistatin]
[1]; mouse, in vivo
  HE and Masson staining of ear hole: completely closed and identified as a regeneration event
  closure of 2 mm ear hole: the ear hole was completely closed
[3]
  inhibition of overall protein translation: significantly inhibit overall protein translation
ISG genes
  ISG gene expression: significantly promote the ISG gene expression

B1: interferon (IFN) γ: cytokine interferon γ (protein, UniProt P01579 24-161, looked up)
Interferon gamma: QDPYVKEAENLKKYFNAGHSDVADNGTLFLGILKNWKEESDRKIMQSQIVSFYFKLFKNFKDDQSIQKSVETIKEDMNVKFFNSNKKKRDDFEKLTNYSVTDLNVQRKAIHELIQVMAELSPAAKTGKRKRSQMLFRG
[1]; IFNγ 50 μg/kg ip once every two days, 35th day after damage (FIG. 7C)
  healing of ear holes: significantly promoted the healing of ear holes after damage
ISG genes; 10 ng/ml, fibroblasts and macrophages (FIG. 7A, 7B)
  ISG gene expression: significantly promote the ISG gene expression

B2: S100A8/A9: S100A8/A9 heterodimer (Biolegend, 765502), alarmin protein (protein, UniProt P05109 1-93; P06702 1-114, looked up)
Protein S100-A8: MLTELEKALNSIIDVYHKYSLIKGNFHAVYRDDLKKLLETECPQYIRKKGADVWFKELDINTDGAVNFQEFLILVIKMGVAAHKKSHEESHKE
Protein S100-A9: MTCKMSQLERNIETIINTFHQYSVKLGHPDTLNQGEFKELVRKDLQNFLKKENKNEKVIEHIMEDLDTNADKQLSFEEFIMLMARLTWASHEKMHEGDEGPGHHHKPGLGEGTP
[1]; S100A8/A9 12.5 μg/kg ip every two days, 35th day after damage (FIG. 8C)
  healing of ear holes: significantly promoted the healing of the ear holes
[1]; S100A8/A9 12.5 μg/kg, 35th day after damage
  complete closure of ear holes: one of the ear holes was completely closed
[1]; S100A8/A9 (FIG. 8D)
  HE and Masson staining, regenerated structures: regeneration of various tissue structures, such as epidermis, dermis, hair follicles, glands, cartilage
ISG genes; 5 ng/ml, fibroblasts and macrophages (FIG. 8A, 8B)
  ISG gene expression: significantly promote the ISG gene expression
